In patent publication US20260364215A1, “Radiopharmaceutical Compositions Targeting Ephrin Type-A Receptor 2 and Uses Thereof” (PeptiDream Inc., priority 2022, published 2026):
Numbered stars: 1 amine (or outer) side, 2 acyl side, 3 side chain; on linkers, the order of the positions; unused ones are H or OH. Bridge positions count the residues as written; N and C are the ends. Square brackets hold non-standard residues; d marks the D form. Side chains are listed from the residue outwards. Peptide text beside a SMILES is read from it. * marks the point of attachment. DOTA(Lu) = O=C1CN2CCN3CCN(CC(=O)*)CCN(CC2)CC(=O)[O][Lu]([O]1)[O]C(=O)C3; NH(1-deoxy-D-glucityl) = OC[C@@H](O)[C@@H](O)[C@H](O)[C@@H](O)CN*; DOTA = O=C(O)CN1CCN(CC(=O)O)CCN(CC(=O)*)CCN(CC(=O)O)CC1; Trp(1-Me,7-Cl) = Cn1cc(C[C@H](N)C(=O)O)c2cccc(Cl)c21; dPhe(3-CONH2) = NC(=O)c1cccc(C[C@@H](N)C(=O)O)c1; Piperazinyl(4-CH2COOH) = O=C(O)CN1CCN(*)CC1; Trp(1-Me) = Cn1cc(C[C@H](N)C(=O)O)c2ccccc21; NMemTyr = CN[C@@H](Cc1cccc(O)c1)C(=O)O; NMe3Pal = CN[C@@H](Cc1cccnc1)C(=O)O; NMeF = CN[C@@H](Cc1ccccc1)C(=O)O; Gly(cBu) = N[C@H](C(=O)O)C1CCC1; NMeE = CN[C@@H](CCC(=O)O)C(=O)O; Aad = N[C@@H](CCCC(=O)O)C(=O)O; NMeN = CN[C@@H](CC(N)=O)C(=O)O; CO = O=C([*:1])[*:2]

molecular target: T1, Recombinant Human EphA2 Fc Protein (Homo sapiens, UniProt P29317); assay: Interaction analysis (kinetics, KD) of peptides and conjugates against EphA2 by SPR, Biacore T200, single-cycle kinetics (Examples B15 and B22); format: binding; conditions: not given
T1 construct: purchased Elabscience
Procedure, shortened: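 Biacore T200 SPR with Fc-tagged human EphA2 captured via anti-human antibody; running buffer HBS-P+ pH 7.4 with 1% DMSO, 25 °C. Five serial dilutions of peptide or conjugate run by single-cycle kinetics; KD from ka and kd after baseline subtraction.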

T1 sequence (P29317 24-534 limits assumed): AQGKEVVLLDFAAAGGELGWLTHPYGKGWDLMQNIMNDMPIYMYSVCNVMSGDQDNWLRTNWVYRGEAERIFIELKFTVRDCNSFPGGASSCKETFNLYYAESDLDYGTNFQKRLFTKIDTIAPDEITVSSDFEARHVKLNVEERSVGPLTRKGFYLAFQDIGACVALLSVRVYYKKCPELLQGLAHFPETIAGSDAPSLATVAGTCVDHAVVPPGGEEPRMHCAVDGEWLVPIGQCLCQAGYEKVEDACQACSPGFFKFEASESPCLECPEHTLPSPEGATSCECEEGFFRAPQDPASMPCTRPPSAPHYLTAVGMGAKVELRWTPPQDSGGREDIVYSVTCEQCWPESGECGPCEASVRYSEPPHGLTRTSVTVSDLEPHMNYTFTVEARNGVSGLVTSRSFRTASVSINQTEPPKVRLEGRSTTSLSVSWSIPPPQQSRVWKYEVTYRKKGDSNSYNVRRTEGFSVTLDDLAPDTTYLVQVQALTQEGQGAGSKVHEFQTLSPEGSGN

Row | Compound | Kd
1 | CN1C(=O)[C@H](CCCC(N)=O)NC(=O)[C@H](C2CCC2)NC(=O)[C@H](CC(N)=O)NC(=O)[C@H](Cc2cccc(O)c2)N(C)C(=O)[C@@H](Cc2cccc(C(N)=O)c2)NC(=O)CSC[C@@H](C(=O)N[C@@H](CCCCNC(=O)CN2CCN3CCN4CCN(CC2)CC(=O)[O][Lu]([O]C(=O)C3)[O]C(=O)C4)C(N)=O)NC(=O)[C@H](Cc2cn(C)c3ccccc23)NC(=O)[C@H](CCCCNC(=O)N2CCN(CC(=O)O)CC2)NC(=O)[C@H](Cc2cn(C)c3c(Cl)cccc23)NC(=O)[C@@H]1CCC(=O)O [PDC_EphA2-00026608-C301] ({CH2CO}-[dPhe(3-CONH2)][NMemTyr]N[Gly(cBu)][Aad](NH2)[NMeE][Trp(1-Me,7-Cl)]K([CO-Piperazinyl(4-CH2COOH)])[Trp(1-Me)]CK(DOTA(Lu))-NH2; thioether N-10) | < 1 nM
2 | CC(C)C[C@@H]1NC(=O)[C@H](CC(N)=O)NC(=O)[C@H](Cc2cccnc2)N(C)C(=O)[C@@H](C)NC(=O)CSC[C@@H](C(N)=O)NC(=O)[C@H](CCCC(N)=O)NC(=O)[C@H]([C@@H](C)O)NC(=O)[C@H](Cc2cn(C)c3ccccc23)NC(=O)[C@H](CCCCNC(=O)N2CCN(CC(=O)O)CC2)NC(=O)[C@H](Cc2cn(C)c3c(Cl)cccc23)NC(=O)[C@H](CCC(=O)O)N(C)C(=O)[C@H](CCCCNC(=O)CN2CCN3CCN4CCN(CC2)CC(=O)[O][Lu]([O]C(=O)C3)[O]C(=O)C4)NC1=O [PDC_EphA2-00026631] ({CH2CO}-[dA][NMe3Pal]NLK(DOTA(Lu))[NMeE][Trp(1-Me,7-Cl)]K([CO-Piperazinyl(4-CH2COOH)])[Trp(1-Me)]T[Aad](NH2)C-NH2; thioether N-12) | < 1 nM
3 | CC(C)C[C@@H]1NC(=O)[C@H](CC(N)=O)NC(=O)[C@H](Cc2cccnc2)N(C)C(=O)[C@@H](C)NC(=O)CSC[C@@H](C(N)=O)NC(=O)[C@H](CCCC(N)=O)NC(=O)[C@H]([C@@H](C)O)NC(=O)[C@H](Cc2cn(C)c3ccccc23)NC(=O)[C@H](CCCCNC(=O)CN2CCN3CCN4CCN(CC2)CC(=O)[O][Lu]([O]C(=O)C3)[O]C(=O)C4)NC(=O)[C@H](Cc2cn(C)c3c(Cl)cccc23)NC(=O)[C@H](CCC(=O)O)N(C)C(=O)[C@H](CCCC(N)=O)NC1=O [PDC_EphA2-00026632] ({CH2CO}-[dA][NMe3Pal]NL[Aad](NH2)[NMeE][Trp(1-Me,7-Cl)]K(DOTA(Lu))[Trp(1-Me)]T[Aad](NH2)C-NH2; thioether N-12) | < 1 nM
4 | CC(C)C[C@@H]1NC(=O)[C@H](CC(N)=O)NC(=O)[C@H](Cc2cccnc2)N(C)C(=O)[C@@H](C)NC(=O)CSC[C@@H](C(N)=O)NC(=O)[C@H](CCCCNC(=O)CN2CCN3CCN4CCN(CC2)CC(=O)[O][Lu]([O]C(=O)C3)[O]C(=O)C4)NC(=O)[C@H]([C@@H](C)O)NC(=O)[C@H](Cc2cn(C)c3ccccc23)NC(=O)[C@H](CCCCNC(=O)N2CCN(CC(=O)O)CC2)NC(=O)[C@H](Cc2cn(C)c3c(Cl)cccc23)NC(=O)[C@H](CCC(=O)O)N(C)C(=O)[C@H](CCCC(N)=O)NC1=O [PDC_EphA2-00026633] ({CH2CO}-[dA][NMe3Pal]NL[Aad](NH2)[NMeE][Trp(1-Me,7-Cl)]K([CO-Piperazinyl(4-CH2COOH)])[Trp(1-Me)]TK(DOTA(Lu))C-NH2; thioether N-12) | < 1 nM
5 | CC(C)C[C@@H]1NC(=O)[C@H](CC(N)=O)NC(=O)[C@H](Cc2cccnc2)N(C)C(=O)[C@@H](Cc2cccc(C(N)=O)c2)NC(=O)CSC[C@@H](C(N)=O)NC(=O)[C@H](CCCC(N)=O)NC(=O)[C@H]([C@@H](C)O)NC(=O)[C@H](Cc2cn(C)c3ccccc23)NC(=O)[C@H](CCC(=O)NC[C@H](O)[C@@H](O)[C@H](O)[C@H](O)CO)NC(=O)[C@H](Cc2cn(C)c3c(Cl)cccc23)NC(=O)[C@H](CC(N)=O)N(C)C(=O)[C@H](CCCCNC(=O)CN2CCN3CCN4CCN(CC2)CC(=O)[O][Lu]([O]C(=O)C3)[O]C(=O)C4)NC1=O [PDC_EphA2-00026714] ({CH2CO}-[dPhe(3-CONH2)][NMe3Pal]NLK(DOTA(Lu))[NMeN][Trp(1-Me,7-Cl)]E(NH(1-deoxy-D-glucityl))[Trp(1-Me)]T[Aad](NH2)C-NH2; thioether N-12) | < 1 nM
6 | CC(C)C[C@@H]1NC(=O)[C@H](CC(N)=O)NC(=O)[C@H](Cc2cccnc2)N(C)C(=O)[C@@H](Cc2cccc(C(N)=O)c2)NC(=O)CSC[C@@H](C(N)=O)NC(=O)[C@H](CCCC(N)=O)NC(=O)[C@H]([C@@H](C)O)NC(=O)[C@H](Cc2cn(C)c3ccccc23)NC(=O)[C@H](CCCCNC(=O)CN2CCN3CCN4CCN(CC2)CC(=O)[O][Lu]([O]C(=O)C3)[O]C(=O)C4)NC(=O)[C@H](Cc2cn(C)c3c(Cl)cccc23)NC(=O)[C@H](CC(N)=O)N(C)C(=O)[C@H](CCCC(N)=O)NC1=O [PDC_EphA2-00026715] ({CH2CO}-[dPhe(3-CONH2)][NMe3Pal]NL[Aad](NH2)[NMeN][Trp(1-Me,7-Cl)]K(DOTA(Lu))[Trp(1-Me)]T[Aad](NH2)C-NH2; thioether N-12) | < 1 nM
7 | CC(C)C[C@@H]1NC(=O)[C@H](CC(N)=O)NC(=O)[C@H](Cc2cccnc2)N(C)C(=O)[C@@H](Cc2cccc(C(N)=O)c2)NC(=O)CSC[C@@H](C(N)=O)NC(=O)[C@H](CCCC(N)=O)NC(=O)[C@H]([C@@H](C)O)NC(=O)[C@H](Cc2cn(C)c3ccccc23)NC(=O)[C@H](CCCCNC(=O)CN2CCN3CCN4CCN(CC2)CC(=O)[O][Lu]([O]C(=O)C3)[O]C(=O)C4)NC(=O)[C@H](Cc2cn(C)c3c(Cl)cccc23)NC(=O)[C@H](CCC(=O)O)N(C)C(=O)[C@H](CCCC(N)=O)NC1=O [PDC_EphA2-00026718] ({CH2CO}-[dPhe(3-CONH2)][NMe3Pal]NL[Aad](NH2)[NMeE][Trp(1-Me,7-Cl)]K(DOTA(Lu))[Trp(1-Me)]T[Aad](NH2)C-NH2; thioether N-12) | < 1 nM

same assay, conditions: conjugates, Biacore T200 according to Example B15, Table B16; read-out: SPR Kd

Row | Compound | Kd
8 | CC(C)C[C@@H]1NC(=O)[C@H](CC(N)=O)NC(=O)[C@H](Cc2cccnc2)N(C)C(=O)[C@@H](Cc2cccc(C(N)=O)c2)NC(=O)CSC[C@@H](C(N)=O)NC(=O)[C@H](CCCCNC(=O)CN2CCN(CC(=O)O)CCN(CC(=O)O)CCN(CC(=O)O)CC2)NC(=O)[C@H]([C@@H](C)O)NC(=O)[C@H](Cc2cn(C)c3ccccc23)NC(=O)[C@H](CCC(=O)NC[C@H](O)[C@@H](O)[C@H](O)[C@H](O)CO)NC(=O)[C@H](Cc2cn(C)c3c(Cl)cccc23)NC(=O)[C@H](CC(N)=O)N(C)C(=O)[C@H](CCCC(N)=O)NC1=O.[Lu+3] [PDC_EphA2-00026716] ({CH2CO}-[dPhe(3-CONH2)][NMe3Pal]NL[Aad](NH2)[NMeN][Trp(1-Me,7-Cl)]E(NH(1-deoxy-D-glucityl))[Trp(1-Me)]TK(DOTA)C-NH2; thioether N-12) | < 1 nM
9 | CC(C)C[C@@H]1NC(=O)[C@H](CC(N)=O)NC(=O)[C@H](Cc2cccnc2)N(C)C(=O)[C@@H](Cc2cccc(C(N)=O)c2)NC(=O)CSC[C@@H](C(N)=O)NC(=O)[C@H](CCCC(N)=O)NC(=O)[C@H]([C@@H](C)O)NC(=O)[C@H](Cc2cn(C)c3ccccc23)NC(=O)[C@H](CCCCNC(=O)N2CCN(CC(=O)O)CC2)NC(=O)[C@H](Cc2cn(C)c3c(Cl)cccc23)NC(=O)[C@H](CCC(=O)O)N(C)C(=O)[C@H](CCCCNC(=O)CN2CCN(CC(=O)O)CCN(CC(=O)O)CCN(CC(=O)O)CC2)NC1=O.[Lu+3] [PDC_EphA2-00026717] ({CH2CO}-[dPhe(3-CONH2)][NMe3Pal]NLK(DOTA)[NMeE][Trp(1-Me,7-Cl)]K([CO-Piperazinyl(4-CH2COOH)])[Trp(1-Me)]T[Aad](NH2)C-NH2; thioether N-12) | < 1 nM
10 | CC(C)C[C@@H]1NC(=O)[C@H](CC(N)=O)NC(=O)[C@H](Cc2cccnc2)N(C)C(=O)[C@@H](Cc2cccc(C(N)=O)c2)NC(=O)CSC[C@@H](C(N)=O)NC(=O)[C@H](CCCCNC(=O)CN2CCN(CC(=O)O)CCN(CC(=O)O)CCN(CC(=O)O)CC2)NC(=O)[C@H]([C@@H](C)O)NC(=O)[C@H](Cc2cn(C)c3ccccc23)NC(=O)[C@H](CCCCNC(=O)N2CCN(CC(=O)O)CC2)NC(=O)[C@H](Cc2cn(C)c3c(Cl)cccc23)NC(=O)[C@H](CCC(=O)O)N(C)C(=O)[C@H](CCCC(N)=O)NC1=O.[Lu+3] [PDC_EphA2-00026719] ({CH2CO}-[dPhe(3-CONH2)][NMe3Pal]NL[Aad](NH2)[NMeE][Trp(1-Me,7-Cl)]K([CO-Piperazinyl(4-CH2COOH)])[Trp(1-Me)]TK(DOTA)C-NH2; thioether N-12) | < 1 nM
11 | CC(C)C[C@@H]1NC(=O)[C@H](CC(N)=O)NC(=O)[C@H](Cc2cccnc2)N(C)C(=O)[C@@H](C)NC(=O)CSC[C@@H](C(=O)N[C@H](CCCCNC(=O)CN2CCN(CC(=O)O)CCN(CC(=O)O)CCN(CC(=O)O)CC2)C(N)=O)NC(=O)[C@H](CCCC(N)=O)NC(=O)[C@H]([C@@H](C)O)NC(=O)[C@H](Cc2cn(C)c3ccccc23)NC(=O)[C@H](CCCCNC(=O)N2CCN(CC(=O)O)CC2)NC(=O)[C@H](Cc2cn(C)c3ccccc23)NC(=O)[C@H](CCC(=O)O)N(C)C(=O)[C@H](CCCC(N)=O)NC1=O.[Lu+3] [PDC_EphA2-00026772] ({CH2CO}-[dA][NMe3Pal]NL[Aad](NH2)[NMeE][Trp(1-Me)]K([CO-Piperazinyl(4-CH2COOH)])[Trp(1-Me)]T[Aad](NH2)C[dK](DOTA)-NH2; thioether N-12) | < 1 nM
12 | CC(C)[C@@H]1NC(=O)[C@H](Cc2cn(C)c3ccccc23)NC(=O)[C@H](CC(N)=O)N(C)C(=O)[C@H](CCCC(N)=O)NC(=O)[C@H](C2CCC2)NC(=O)[C@H](CC(N)=O)NC(=O)[C@H](Cc2ccccc2)N(C)C(=O)[C@@H](C)NC(=O)CSC[C@@H](C(=O)N[C@H](CCCCNC(=O)CN2CCN(CC(=O)O)CCN(CC(=O)O)CCN(CC(=O)O)CC2)C(=O)O)NC(=O)[C@H](CCCC(N)=O)NC(=O)[C@H]([C@@H](C)O)NC(=O)[C@H](Cc2cn(C)c3ccccc23)NC1=O.[Lu+3] [PDC_EphA2-00026773] ({CH2CO}-[dA][NMeF]N[Gly(cBu)][Aad](NH2)[NMeN][Trp(1-Me)]V[Trp(1-Me)]T[Aad](NH2)C[dK](DOTA)-OH; thioether N-12) | < 1 nM
